Experiment: in vitro
Conditions: human, hela cells, % viability

In order of rising viability at 28.5 h, 10 µM:
1. CCOC(=O)C(C)n1nc(C)n2c(cc3sccc32)c1=O (stereo not shown) [CBK283333]  67%
2. Cc1ccc(Nc2nc(O)ns2)cc1 [CBK026011]  81%
3. CN(C)C(=O)CN1CC[C@@H](c2ccccc2)[C@H](O)C1 [CBK283979]  83%
4. O/N=C1\CC2(CCCCC2)c2ccccc21 [CBK013318]  83%
5. CC(C)C(=O)N1CCC(Cn2nc(-c3ccccc3)ccc2=O)CC1 [CBK284114]  83.1%
6. COc1ccc(-c2csc(Nc3ccc(N)cc3)n2)cc1OC [CBK074456]  83.4%
7. COc1cccc(NC(=O)c2ccc(NC(=O)CCCC(=O)O)cc2)c1 [CBK287137]  83.7%
8. COC(=O)[C@H]1CCc2ccccc2N1C(=O)c1ccco1 [CBK284259]  84.5%
9. Cc1ccc(C(=O)NCCCN2CCC3(CC2)OCCc2c3[nH]c3ccccc23)cc1 [CBK113485]  85.5%
10. c1ccc2c(c1)OCC(COc1nccc(N3CCCN(Cc4ccc5c(c4)OCO5)CC3)n1)O2 (stereo not shown) [CBK083235T]  85.7%
11. CN(C)c1ccc([N+](=O)[O-])cc1/C=N/NC(=O)CCc1ccccc1O [CBK263257]  86.1%
12. Cc1cnc2[nH]c(C3CCCN(C(=O)c4cccnc4)C3)cc2c1 (stereo not shown) [CBK285168]  86.1%
13. O=C(NCC1Cc2ccccc2O1)c1ccc(Br)cc1Cl (stereo not shown) [CBK298323]  86.9%
14. COc1cccc2c(O)cnnc12 [CBK026139]  87.2%
15. Cc1sc(NC(=O)C2C3C=CC(C3)C2C(=O)O)c(C(N)=O)c1C (stereo not shown) [CBK263685]  87.6%
16. CN(CC(=O)Nc1ccc(Cl)c(C(F)(F)F)c1)C(=O)c1cc(O)nc2ccccc12 [CBK295304]  87.8%
17. C[C@H](NC(=O)N1CCN(C(=O)CCCc2c[nH]c3ccccc23)CC1)C(=O)O [CBK286749]  88%
18. Cc1ccccc1N1CC(C(=O)Nc2cccnc2)CC1=O (stereo not shown) [CBK288138]  88.3%
19. CCOC(=O)c1ccccc1NS(=O)(=O)c1ccc(C)c([N+](=O)[O-])c1 [CBK045451]  88.7%
20. COc1cccc(/C=C2/NC(=O)N(Cc3ccc(F)cc3)C2=O)c1OCc1cccc(C(=O)O)c1 [CBK265282]  89.1%
21. O=C(CN1CCCCCC1)N/N=C/c1ccccc1Cl [CBK261589]  89.4%
22. CC(=O)NCCSc1nc2ccccc2nc1C(F)(F)F [CBK105303]  89.6%
23. CCCNC(=O)c1nn2c(c1Cl)NC(c1cccs1)CC2C(F)(F)F (stereo not shown) [CBK307177]  90.3%
24. CCC(O)c1nc(CCSC)nn1-c1cc(=O)n(C)c2ccccc12 (stereo not shown) [CBK307711]  90.5%
25. N#CCCCN1CCC(Oc2nccnc2OCc2cccc(Cl)c2)CC1 [CBK153642]  90.6%
26. Cc1cc(C(=O)N2CCCC2c2ccc[nH]2)c2c(C)noc2n1 (stereo not shown) [CBK305245]  91.5%
27. Cc1ccc2c(c1)C(NC(=O)C1CC1C)CC1(CCOCC1)O2 (stereo not shown) [CBK284880]  91.8%
28. COc1ccccc1CNC(=O)CCn1ccc2ccncc21 [CBK282229]  91.9%
29. Cc1[nH]c2cc(C(=O)NCCn3nccc3C)ccc2c1C [CBK283313]  92.8%
30. CC(=O)N1CC[C@H]2NC(=O)CNC(=O)C3(CCCC[C@H]2C1)CCN(C(=O)CC1CCOCC1)CC3 [CBK292030]  92.9%
31. Cc1ccc(C)c(NC(=O)CSc2nnc(CCc3ccccc3)n2C)c1 [CBK266365]  93.7%
32. COc1c(C)cc(S(=O)(=O)NCCN2CCOCC2)c(C)c1C [CBK269893]  94.1%
33. O=C(CC1CCCC1)N1CCCC(c2nnc(-c3cccs3)o2)C1 (stereo not shown) [CBK284631]  94.3%
34. Cc1nnc(CN(CC2CCCO2)C2CCC(C)CC2)o1 (stereo not shown) [CBK304824]  94.7%
35. O=C(O)c1ccc(-c2ccc(/C=C/c3[nH]c(=O)[nH]c(=O)c3[N+](=O)[O-])o2)cc1Cl [CBK267139]  94.9%
36. Cc1ccc(CN(CCCn2ccnc2)Cc2c[nH]cn2)s1 [CBK283136]  95.1%
37. CCCSc1nnc(NC(=O)c2nc(SC)ncc2Cl)s1 [CBK268759]  95.2%
38. CCCCc1cc(=O)oc2cc(OC(C)C(=O)O)c(Cl)cc12 (stereo not shown) [CBK265166]  95.7%
39. O=[N+]([O-])c1ccc(CN2CCC(Oc3nccnc3OCc3cccnc3)CC2)cc1 [CBK083162T]  95.8%
40. CC(C)C(=O)N1CCC2(C/C=C/C[C@H]3COCC[C@H]3NC(=O)CNC2=O)CC1 [CBK292157]  95.8%
41. CCOc1ccccc1N(CC(=O)Nc1ccc(C)cc1C)S(C)(=O)=O [CBK263799]  96%
42. Cc1cc(NC(=O)CN(C)Cc2ccc(Br)cc2)on1 [CBK305599]  97.3%
43. CC(=O)Nc1ccc(S(=O)(=O)N2CCN(c3cc4[nH]c(=O)[nH]c4cc3[N+](=O)[O-])CC2)cc1 [CBK267013]  97.7%
44. CC(c1cc2ccccc2s1)N(O)C(N)=O (stereo not shown) [CBK008078]  98.2%
45. O=C1COc2ccccc2C/C=C/CC2(CCN(C(=O)c3cncc(O)c3)CC2)C(=O)NCCN1 [CBK291989]  98.3%
46. Cn1c2ccccc2c2nnc(NCCCCO)nc21 [CBK023366]  98.8%
47. c1cnc2cc(Oc3ccc4nccnc4c3)ccc2n1 [CBK267266]  99.4%
48. O=C(c1ccccc1)N1CCCC(c2cccc(Cc3ccc(Cl)cc3)n2)C1 (stereo not shown) [CBK286502]  99.5%
49. CNc1nc2c(ncn2C2CC(O)C(CO)O2)c(=O)[nH]1 (stereo not shown) [CBK201312]  100%
50. CCN(CC)C(=O)CN1CCN(c2nccnc2OCc2ccc(Cl)c(Cl)c2)CC1 [CBK083081T]  101%
51. CC(=O)N(Cc1ccccc1)c1ccc(C(=O)O)cc1 [CBK286882]  102%
52. Nc1nnc(Sc2nccnc2N2CCCC2)s1 [CBK093804]  103%
53. O=c1[nH]c2ncc(-c3cccnc3)nc2n1CCN1CCOCC1 [CBK065070]  103%
54. CC(=O)NC1(c2ccc(F)cc2)CCN(C(=O)C(C)C)CC1 [CBK283491]  103%
55. CSCCN1CCC(Oc2cncc(OCC3COc4ccccc4O3)n2)C1 (stereo not shown) [CBK084381]  105%
56. c1ccc2c(c1)n(CCN1CCOCC1)c1nc(C34CC5CC(CC(C5)C3)C4)cn21 [CBK278154C]  105%
57. N/C(=N\OC(=O)CSc1ccccc1)c1ccccn1 [CBK266056]  105%
58. CSc1ncc(C(=O)N2CCC(N3CCCC(O)C3)CC2)cn1 (stereo not shown) [CBK307055]  106%
59. COc1cccc(-c2nnc(SCC(=O)Nc3cccc([N+](=O)[O-])c3)n2C)c1 [CBK266074]  106%
60. OCCN(CCO)c1cncc(-c2cccc(C(F)(F)F)c2)n1 [CBK037917]  109%
61. O=C(N/N=C/c1ccccc1O)c1cccc(C(=O)N/N=C/c2ccccc2O)n1 [CBK261459]  111%
62. Cc1cc(C)n(CC(O)CN(c2ccccc2)S(=O)(=O)c2ccccc2)n1 (stereo not shown) [CBK264469]  118%
63. COc1ccc(C2C(C(=O)c3ccccc3)=C(O)C(=O)N2CCN(C)C)cc1OC (stereo not shown) [CBK263352]  119%

Same assay, conditions: human, hela cells, % viability, bulk resorufin, single well

With `CCOC(=O)C1(c2ccccc2)CCN(C(=O)CCC(=O)OC)CC1` [CBK132198] the viability at 28.5 h, 10 µM was 79.8%.

Source: PMC12040169 (PLOS Biology, 2025)
